Experimental data reported in patent US20260098017A1, “NOVEL AROMATIC RING DERIVATIVE CONTAINING AMIDE SUBSTITUTION AND USE THEREOF” (TIANJIN PHARMACEUTICAL BIOTECHNOLOGY CO., LTD., priority 2022, published 2026).

Molecular target: Ba/F3 cell line expressing TYK2 (Homo sapiens, UniProt P29597, cells depend on it, form not given)
Test: In vitro cellular inhibition assay (Ba/F3 cell proliferation, CellTiter-Glo)
Assay type: cell-based
Conditions: read-out: IC50 (the source's name)
Description: The inhibitory effect of the compounds of formula (I) according to the present invention on the TYK2 signaling pathway in cells was assessed using the following method:
Instrumentation: SpectraMax Paradigm reader.
Method: in this experiment, a Ba/F3 cell line expressing TYK2 was employed to assess the effect of the compounds on cell proliferation inhibition by measuring their effects on cell activity in vitro.
Procedure: a CellTiter-Glo buffer was thawed and placed aside till room temperature. A CellTiter-Glo substrate was placed aside till room temperature and dissolved with the buffer to prepare a CellTiter-Glo working solution. To a 96-well flat bottom transparent drug plate, 98 μL of cell culture medium and 2 μL of gradient diluted compound solution were added. The drug plate was placed aside for 10 min, and then 50 μL of the CellTiter-Glo working solution was added. The drug plate was subsequently shaken on an orbital shaker for 2 min and placed aside at room temperature for an additional 10 min. Finally, the luminescence signal was measured on the SpectraMax Paradigm reader.
Data Analysis: the cell proliferation inhibition rate data were processed using the following formula:
Inhibition Rate (Inh %)=100−(RLUDrug−RLUMin)/(RLUMax−RLUMin)×100%.
The inhibition rates of compounds with different concentrations were calculated in EXCEL, and then GraphPad Prism software was employed to plot inhibition rate curve and calculate relevant parameters, including maximum and minimum cell inhibition rates, IC50 values.

SMILES	GI50 [nM]
[2H]C([2H])([2H])NC(=O)c1cnc(NC(=O)C2CC2)cc1Nc1cccc(C(=O)Nc2cccc(C)c2C)c1OC [Example 60]	5 to 10
[2H]C([2H])([2H])NC(=O)c1nnc(NC(=O)C2CC2)cc1Nc1cccc(C(=O)Nc2ccc(OC)c(C)c2)c1OC [Example 31]	5 to 10
[2H]C([2H])([2H])NC(=O)c1nnc(NC(=O)C2CC2)cc1Nc1cccc(C(=O)Nc2ccc(CC)c(C)c2)c1OC [Example 25]	5 to 10
[2H]C([2H])([2H])NC(=O)c1nnc(NC(=O)C2CC2)cc1Nc1cccc(C(=O)Nc2ncc(C)cn2)c1OC [Example 45]	5 to 10
[2H]C([2H])([2H])NC(=O)c1nnc(NC(=O)C2CC2)cc1Nc1cccc(C(=O)Nc2ccc(C(F)(F)F)cc2)c1OC [Example 22]	5 to 10
[2H]C([2H])([2H])NC(=O)c1nnc(NC(=O)C2CC2)cc1Nc1cccc(C(=O)Nc2cccc(F)c2)c1OC [Example 6]	5 to 10
[2H]C([2H])([2H])NC(=O)c1nnc(NC(=O)C2CC2)cc1Nc1cccc(C(=O)Nc2cccc(C)c2C)c1OC [Example 8]	5 to 10
[2H]C([2H])([2H])NC(=O)c1nnc(NC(=O)C2CC2)cc1Nc1cccc(C(=O)Nc2ccc(C3CC3)cc2)c1OC [Example 19]	5 to 10
[2H]C([2H])([2H])NC(=O)c1cnc(NC(=O)C2CC2)cc1Nc1cccc(C(=O)Nc2ccc(C(C)(C)C)cc2)c1OC [Example 73]	5 to 10
[2H]C([2H])([2H])NC(=O)c1cnc(NC(=O)C2CC2)cc1Nc1cccc(C(=O)Nc2ccc(C(F)(F)F)cc2)c1OC [Example 74]	5 to 10
[2H]C([2H])([2H])NC(=O)c1cnc(NC(=O)C2CC2)cc1Nc1cccc(C(=O)Nc2cccc(C(C)(C)C)c2)c1OC [Example 69]	5 to 10
[2H]C([2H])([2H])NC(=O)c1nnc(NC(=O)C2CC2)cc1Nc1cccc(C(=O)Nc2ncccn2)c1OC [Example 51]	5 to 10
[2H]C([2H])([2H])NC(=O)c1nnc(NC(=O)C2CC2)cc1Nc1cccc(C(=O)Nc2ccc(C(C)C)c(C)c2)c1OC [Example 27]	5 to 10
[2H]C([2H])([2H])NC(=O)c1nnc(NC(=O)C2CC2)cc1Nc1cccc(C(=O)Nc2ccc(C3CC3)c(C)c2)c1OC [Example 26]	5 to 10
[2H]C([2H])([2H])NC(=O)c1nnc(NC(=O)C2CC2)cc1Nc1cccc(C(=O)Nc2cccnc2)c1OC [Example 49]	5 to 10

Next, values leading:

GI50 [nM]	SMILES
5 to 10	[2H]C([2H])([2H])NC(=O)c1cnc(NC(=O)C2CC2)cc1Nc1cccc(C(=O)Nc2ccc(C(C)C)c(C)c2)c1OC [Example 79]
5 to 10	[2H]C([2H])([2H])NC(=O)c1cnc(NC(=O)C2CC2)cc1Nc1cccc(C(=O)Nc2ccn(C)n2)c1OC [Example 85]
5 to 10	[2H]C([2H])([2H])NC(=O)c1cnc(NC(=O)C2CC2)cc1Nc1cccc(C(=O)Nc2ccccn2)c1OC [Example 100]
5 to 10	[2H]C([2H])([2H])NC(=O)c1cnc(NC(=O)C2CC2)cc1Nc1cccc(C(=O)Nc2ncn(C)n2)c1OC [Example 88]
5 to 10	[2H]C([2H])([2H])NC(=O)c1cnc(NC(=O)C2CC2)cc1Nc1cccc(C(=O)Nc2ccc(C(C)(C)C)c(C)c2)c1OC [Example 80]
5 to 10	[2H]C([2H])([2H])NC(=O)c1cnc(NC(=O)C2CC2)cc1Nc1cccc(C(=O)Nc2ccc(OC)cc2)c1OC [Example 76]
5 to 10	[2H]C([2H])([2H])NC(=O)c1cnc(NC(=O)C2CC2)cc1Nc1cccc(C(=O)Nc2cnc(F)nc2)c1OC [Example 99]
5 to 10	[2H]C([2H])([2H])NC(=O)c1cnc(NC(=O)C2CC2)cc1Nc1cccc(C(=O)Nc2ccc(CC)c(C)c2)c1OC [Example 77]
5 to 10	[2H]C([2H])([2H])NC(=O)c1cnc(NC(=O)C2CC2)cc1Nc1cccc(C(=O)Nc2ccc(F)cn2)c1OC [Example 94]
5 to 10	[2H]C([2H])([2H])NC(=O)c1cnc(NC(=O)C2CC2)cc1Nc1cccc(C(=O)Nc2ccc(OC)c(C)c2)c1OC [Example 83]
